Assay: Plasma level in mice
Assay type: in vivo
Conditions: iv, mouse, 15 minutes after i.v. dosing
Procedure: Rabbit dosing at 0.1 mg/kg i.v. yields plasma values of 213±88 ng/mL at 15 min. Mouse plasma levels 15 minutes after i.v. dosing was 334+/−74 ng/mL. Therapeutic levels are 100-300 ng/mL, and so analysis is presented after 120 min for P.O. and after 20 min for i.v. (somewhat sooner in rabbit and mouse due to faster kinetics).
To test this, mice were administered the same or higher intravenous bolus doses (0.1, 0.5 mg/kg) as used in dogs and rabbits, and studied using a similar preparation to the rabbit.

Which concentration at 15 min does the source give for `CN1C(=O)c2c(nn(Cc3ccc(-c4cccc(F)n4)cc3)c2Nc2ccccc2)N2C1=N[C@@H]1CCC[C@@H]12` [Compound 1, (6aR,9aS)-2-(4-(6-fluoropyridin-2-yl)benzyl)-5-methyl-3-(phenyl-amino)-5,6a,7,8,9,9a-hexahydrocyclopenta-[4,5]imidazo[1,2-a]pyrazolo[4,3-e]pyrimidin-4-(2H)-one monophosphate] here?
Its concentration at 15 min is 334 ng/mL.

From patent publication US11839614B2, “Methods for treating or mitigating cardiotoxicity characterized by inhibition of adenosine A2 signaling and/or adenosine A2 receptor expression” (INTRA-CELLULAR THERAPIES, INC., priority 2018, dated 2023)
